Test results: patent US8945846B2, “Mutations in the LNK gene in patients with myeloproliferative neoplasms and other hematolymphoid malignancies” (The Board of Trustees of the Leland Stanford Junior …, priority 2010, dated 2015)

Legend:
[1] = system: BaF3-MPL cells expressing WT or mutant LNK; assay: JAK inhibitor growth assay of BaF3-MPL cells grown with TPO; assay type: cell-based; conditions: TPO 10 ng/mL, JAK inhibitor I 0.2 μM to 5 μM, FIG. 2C
Description: FIG. 2. LNK mutations cause dysregulated TPO-dependent growth and JAK2-STAT3/5 activation. BaF3-MPL cells were transduced with empty vector (EV), WT LNK (WT), or mutant LNK (DEL, E208Q, R392E). […] Viable cells were counted daily by staining with propidium iodide (PI) and quantitated with TruCount beads on a LSRII flow cytometer. Error bars represent the standard deviation of two replicates per sample. In Panel B, BaF3-MPL cells were stimulated with TPO (1 ng/ml) for the durations indicated, followed by measurement of JAK2, STAT3 and STAT5 activation via phospho-specific flow cytometry. […] Vertical lines denote the MFI of EV unstimulated cells for comparison. In Panel C, BaF3-MPL cells were cultured in the presence of DMSO control or concentrations of JAK inhibitor I ranging from 0.2 μM to 5 μM. Cumulative growth at four days (normalized to maximal growth for each cell line) is shown. Error bars represent the standard deviation of two replicates per sample.
BaF3-MPL cells were kindly provided by J. Tyner/B. Druker (Oregon Health and Sciences University, Portland, Oreg.) and were maintained in RPMI medium containing 10% FBS and IL-3 (1 ng/mL) (Peprotech, Rocky Hill, N.J.). […] Viable cells were counted daily by staining with propidium iodide (PI) and quantitated with TruCount beads (BD Biosciences, San Jose, Calif.) on a LSRII flow cytometer. […]

JAK2-STAT3/5 activation = assay: TPO-stimulated JAK2, STAT3 and STAT5 activation by phospho-specific flow cytometry in BaF3-MPL cells; assay type: cell-based; conditions: BaF3-MPL cells expressing WT or mutant LNK; pre-incubated two hours with 0.2 μM to 5 μM, then TPO 10 ng/mL; FIG. 5
Description: FIG. 5. Activation of JAK2-STAT3/5 in BaF3-MPL cells expressing WT or mutant LNK requires JAK activity. BaF3-MPL cells expressing WT or mutant LNK were pre-incubated with DMSO or JAK inhibitor I at concentrations ranging from 0.2 μM to 5 μM for two hours prior to stimulation with TPO (10 ng/mL). JAK2, STAT3, and STAT5 activation were then measured by phospho-specific flow cytometry. Line graphs represent % maximal activation for each cell line.
BaF3-MPL cells were starved overnight in cytokine-free media and stimulated with TPO (1 or 10 ng/mL) for time points ranging from 15 minutes to 16 hours at 37° C. Peripheral blood samples were stimulated with either TPO (50 ng/ml) or G-CSF (20 ng/ml)(Peprotech, Rocky Hill, N.J.) for 15 minutes at 37° C. PBMCs were rested in RPMI with 10% FBS for one hour at 37° C. prior to cytokine stimulation. For the JAK inhibitor experiments, PBMCs were incubated with 5 μM JAK inhibitor I (EMD/Calbiochem, San Diego, Calif.) for the final 30 minutes prior to cytokine stimulation. Following cytokine stimulation, cells were fixed in paraformaldehyde (Electron Microscopy Sciences, Hatfield, Pa.). […] Cells were measured on a BD LSRII flow cytometer. […] Flow cytometry data was obtained with FACSDiva software and analyzed using FlowJo (Tree Star, Ashland, Oreg.) or Cytobank according to standard procedures. […]

[2] = system: STAT3/5 activation (pSTAT3+/5+ subpopulation); assay: Cytokine-stimulated STAT3/5 activation by phospho-specific flow cytometry in patient peripheral blood immature myeloid cells; assay type: cell-based, human; conditions: samples from LNK DEL, E208Q, JAK2 V617F, MPL W515L patients and normal donor; 5 μM for 30 minutes, then TPO 50 ng/ml or G-CSF 20 ng/ml for 15 minutes; FIG. 3A
Description: FIG. 3. Identification of a cytokine-responsive pSTAT3+/pSTAT5+ population in CD34+ early progenitors from patients with LNK mutations. Peripheral blood samples from patients with the LNK DEL and E208Q mutations, as well as PMF patients with the JAK2 V617F and MPL W515L mutations, were compared with normal donor. CD3-/CD66-/CD33mid immature myeloid cells are shown in Panels A-C. In Panel A, samples were pre-incubated with either DMSO or JAK inhibitor I (5 μM) for 30 minutes, and then stimulated with either TPO (50 ng/ml) or G-CSF (20 ng/ml) for 15 minutes, prior to assessment of STAT3 and STAT5 activation by phospho-specific flow cytometry. […] For Panels A and B, numbers depicted in each quadrant represent the percentage of total cells present in each quadrant gate. […] DNA was isolated from each subset, and allele-specific quantitative PCR for the DEL mutation was performed. […]
BaF3-MPL cells were starved overnight in cytokine-free media and stimulated with TPO (1 or 10 ng/mL) for time points ranging from 15 minutes to 16 hours at 37° C. […] Cells were measured on a BD LSRII flow cytometer. […] Flow cytometry data was obtained with FACSDiva software and analyzed using FlowJo (Tree Star, Ashland, Oreg.) or Cytobank according to standard procedures. […]

In the case of JAK inhibitor I, the “TPO-dependent growth (cumulative growth at four days)” value [1] is reported as “remained susceptible to JAK inhibition”, the “Inhibition of JAK2-STAT3/5 activation” value (JAK2-STAT3/5 activation) is reported as “effectively inhibited” and the “Effect on cytokine-responsive pSTAT3+/5+ subpopulation” value [2] is reported as “completely eradicated”.
